Tests used:
[1] = molecular target: Kappa-type opioid receptor (Homo sapiens, UniProt P41145); experiment: Displacement of [3H]U69,593 from human kappa opioid receptor expressed in CHO cells by liquid scintillation counting; type: cell-based
[2] = species on record: Homo sapiens; experiment: Selectivity ratio of Ki for human delta opioid receptor to Ki for human mu opioid receptor
[3] = species on record: Homo sapiens; experiment: Selectivity ratio of Ki for human kappa opioid receptor to Ki for human mu opioid receptor
[4] = molecular target: Mu-type opioid receptor (Homo sapiens, UniProt P35372); experiment: Displacement of [3H]DAMGO from human mu opioid receptor expressed in CHO cells by liquid scintillation counting; type: cell-based
[5] = molecular target: Delta-type opioid receptor (Homo sapiens, UniProt P41143); experiment: Displacement of [3H]DADLE from human delta opioid receptor expressed in CHO cells by liquid scintillation counting; type: cell-based
Chain of Delta-type opioid receptor (P41143 whole entry): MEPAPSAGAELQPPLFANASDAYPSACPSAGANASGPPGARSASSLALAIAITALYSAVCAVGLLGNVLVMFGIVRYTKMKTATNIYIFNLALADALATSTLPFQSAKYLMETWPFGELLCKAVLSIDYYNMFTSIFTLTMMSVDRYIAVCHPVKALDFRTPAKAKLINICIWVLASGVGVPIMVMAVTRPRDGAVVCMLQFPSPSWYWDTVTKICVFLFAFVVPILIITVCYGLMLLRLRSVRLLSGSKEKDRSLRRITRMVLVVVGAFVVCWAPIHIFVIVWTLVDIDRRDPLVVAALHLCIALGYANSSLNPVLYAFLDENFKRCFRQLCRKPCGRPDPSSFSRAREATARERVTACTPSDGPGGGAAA

Chain of Mu-type opioid receptor (P35372 whole entry): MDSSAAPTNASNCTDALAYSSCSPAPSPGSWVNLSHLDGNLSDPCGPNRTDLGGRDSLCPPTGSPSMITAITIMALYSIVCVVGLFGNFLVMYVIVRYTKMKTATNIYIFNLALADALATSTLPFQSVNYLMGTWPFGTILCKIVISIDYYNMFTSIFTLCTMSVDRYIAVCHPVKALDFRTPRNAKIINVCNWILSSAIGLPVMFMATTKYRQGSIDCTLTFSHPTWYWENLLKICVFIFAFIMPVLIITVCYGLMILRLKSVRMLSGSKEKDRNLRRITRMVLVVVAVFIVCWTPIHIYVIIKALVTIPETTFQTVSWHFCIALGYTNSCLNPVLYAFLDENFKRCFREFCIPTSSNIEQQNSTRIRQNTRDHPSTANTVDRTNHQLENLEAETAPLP
Chain of Kappa-type opioid receptor (P41145 whole entry): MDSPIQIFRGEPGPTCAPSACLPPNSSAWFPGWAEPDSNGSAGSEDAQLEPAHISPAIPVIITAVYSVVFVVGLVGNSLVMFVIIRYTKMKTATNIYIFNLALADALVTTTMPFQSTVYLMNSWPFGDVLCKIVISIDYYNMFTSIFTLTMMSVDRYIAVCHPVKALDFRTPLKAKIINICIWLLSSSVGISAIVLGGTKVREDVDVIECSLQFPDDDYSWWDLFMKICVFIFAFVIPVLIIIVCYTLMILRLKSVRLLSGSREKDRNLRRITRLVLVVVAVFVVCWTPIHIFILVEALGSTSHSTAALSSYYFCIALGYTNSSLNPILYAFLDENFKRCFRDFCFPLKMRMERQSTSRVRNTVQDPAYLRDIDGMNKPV

| Structure (SMILES) | Ki [1] | Ratio Ki [2] | Ratio Ki [3] | Ki [4] | Ki [5] |
| --- | --- | --- | --- | --- | --- |
| CS(=O)(=O)O[C@@H]1CC[C@@]2(O)[C@H]3Cc4ccc(O)c5c4[C@@]2(CCN3CC2CC2)[C@H]1O5 | 6.75 nM | 83.8 | 6.1 | 1.11 nM | 93.1 nM |
| Cc1ccc(S(=O)(=O)O[C@@H]2CC[C@@]3(O)[C@H]4Cc5ccc(O)c6c5[C@@]3(CCN4CC3CC3)[C@H]2O6)cc1 | 1.66 nM | 6.5 | 2.1 | 0.79 nM | 5.16 nM |
| O=C(O[C@@H]1CC[C@@]2(O)[C@H]3Cc4ccc(O)c5c4[C@@]2(CCN3CC2CC2)[C@H]1O5)N(c1ccccc1)c1ccccc1 | 14.7 nM | 133 | 26.3 | 0.56 nM | 74.6 nM |
| CN(C)C(=O)O[C@@H]1CC[C@@]2(O)[C@H]3Cc4ccc(O)c5c4[C@@]2(CCN3CC2CC2)[C@H]1O5 | 28.2 nM | 180 | 15.2 | 1.85 nM | 334 nM |

Source: ChEMBL document CHEMBL1153596, “Design, synthesis, and characterization of 6beta-naltrexol analogs, and their selectivity for in vitro opioid receptor subtypes” (Bioorg Med Chem Lett, 2009)
